Results taken from US8703785B2, “2-aminopyrimidin-4-one and 2-aminopyridine derivatives both having BACE1-inhibiting activity” (Shionogi & Co., Ltd., priority 2008, dated 2014).
Where two headings read alike, the source gives them in different places.

Assays:
[1] = tested on: Neuroblastoma SH-SY5Y cells (SH/APPwt) with human wild-type β-APP excessively expressed; test: Measurement of β-amyloid (Aβ) production inhibitory effect in cell; type: cell-based; details: 24 hours incubation, Amyloid-β 1-40 HTRF
Protocol: Neuroblastoma SH-SY5Y cells (SH/APPwt) with human wild-type β-APP excessively expressed therein were prepared at 8×10^5 cells/mL, and 150 μl portions thereof were inoculated into respective wells of a 96-well culture plate (Falcon). The cells were cultured for 2 hours at 37° C. in a 5% gaseous carbon dioxide incubator. […] Namely, the final DMSO concentration was 1%, and the amount of the cell culture was 200 μl. After the incubation was performed for 24 hours from the addition of the test compound, 100 μl of the culture supernatant was collected from each fraction. The amount of the Aβ in each fraction was measured. The Aβ amount was measured as follows. 10 μl of a homogeneous time resolved fluorescence (HTRF) measurement reagent (Amyloid-β 1-40 peptide; IBA Molecular Holding, S.A.) and 10 μl of the culture supernatant were put into a 384-well half area microplate (black microplate, Costar) and mixed with each other, and then left standing overnight at 4° C. while the light was shielded. Then, the fluorescence intensity (excitation wavelength: 337 nm, measurement wavelength: 620 nm and 665 nm) was measured with a Wallac 1420 multilabel counter (Perkin Elmer life sciences).

[2] = biological target: Recombinant human BACE-1 (Homo sapiens (Human), UniProt P56817); test: Measurement of BACE1 inhibitory activity; type: biochemical; details: Recombinant human BACE-1 7.4 nM, substrate peptide 18 nM, pH 5.0, 3 hours at 30° C.; read-out: IC50 (BACE1 enzyme activity)
Chain of Recombinant human BACE-1 (P56817 46-501): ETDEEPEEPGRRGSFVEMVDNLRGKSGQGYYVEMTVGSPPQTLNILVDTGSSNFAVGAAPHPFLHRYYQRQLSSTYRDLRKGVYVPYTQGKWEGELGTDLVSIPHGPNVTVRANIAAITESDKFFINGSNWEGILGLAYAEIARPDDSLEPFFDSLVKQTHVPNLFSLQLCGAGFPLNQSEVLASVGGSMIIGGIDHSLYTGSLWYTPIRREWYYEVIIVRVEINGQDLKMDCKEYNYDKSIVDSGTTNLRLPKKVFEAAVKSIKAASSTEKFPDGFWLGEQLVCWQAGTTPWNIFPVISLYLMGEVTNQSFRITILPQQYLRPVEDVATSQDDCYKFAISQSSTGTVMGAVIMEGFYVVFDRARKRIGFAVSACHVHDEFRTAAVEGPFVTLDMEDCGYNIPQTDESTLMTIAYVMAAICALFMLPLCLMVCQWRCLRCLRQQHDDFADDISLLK
Protocol: First, 48.5 μl portions of a solution of substrate peptide (Biotin-XSEVNLDAEFRHDSGC-Eu: X=ε-amino-n-capronic acid, Eu=Europium cryptate) were put into respective wells of a 96-well half area microplate (black microplate, Costar). Then, 0.5 μl of a test compound (DMSO (dimethyl sulfoxide) solution) and 1 μl of Recombinant human BACE-1 (R&D systems) were added to each of the wells, and they were reacted for 3 hours at 30° C. […] The final concentration of the substrate peptide was set to 18 nM, and the final concentration of Recombinant human BACE-1 was set to 7.4 nM. The reaction buffer used was a sodium acetate buffer (50 mM sodium acetate, pH 5.0, 0.008% Triton X-100). After the reaction finished, 50 μl portions of a 8.0 μg/ml solution of Streptavidin-XL665 (CIS bio international) in a phosphate buffer (150 mM K2HPO4—KH2PO4, pH 7.0, 0.008% Triton X-100, 0.8 M KF) were added to the respective wells, and the plate was left standing for 1 hour at 30° C. Thereafter, the fluorescence intensity (excitation wavelength: 320 nm, measurement wavelength: 620 nm and 665 nm) was measured with a Wallac 1420 multilabel counter (Perkin Elmer life sciences). The enzyme activity was determined from the count rate at each measurement wavelength (10000× Count 665/Count 620), and the amount needed to inhibit the enzyme activity by 50% (IC50) was calculated.

[3] = biological target: CYP1A2 (Homo sapiens (Human), UniProt P05177); test: CYP inhibition test (CYP1A2); type: in vitro ADME
Chain of CYP1A2 (P05177 whole entry): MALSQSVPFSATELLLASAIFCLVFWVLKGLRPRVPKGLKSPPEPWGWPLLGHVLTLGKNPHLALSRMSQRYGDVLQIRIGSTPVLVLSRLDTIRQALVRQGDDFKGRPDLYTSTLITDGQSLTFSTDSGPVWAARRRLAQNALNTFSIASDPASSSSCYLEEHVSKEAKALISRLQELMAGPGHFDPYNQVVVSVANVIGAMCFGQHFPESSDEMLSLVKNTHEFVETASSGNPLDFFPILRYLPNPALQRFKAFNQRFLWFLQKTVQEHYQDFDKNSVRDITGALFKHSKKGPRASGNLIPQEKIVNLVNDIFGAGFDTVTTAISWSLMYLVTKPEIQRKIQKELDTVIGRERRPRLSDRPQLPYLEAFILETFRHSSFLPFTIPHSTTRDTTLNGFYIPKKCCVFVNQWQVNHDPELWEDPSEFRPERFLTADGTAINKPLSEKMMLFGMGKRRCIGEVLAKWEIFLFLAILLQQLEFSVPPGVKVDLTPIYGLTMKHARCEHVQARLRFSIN
Source text: (§1) Using commercially available pooled human liver microsomes and employing typical substrate metabolic reactions of 5 major species of human CYP enzymes (CYP1A2, 2C9, 2C19, 2D6, 3A4), namely, O-deethylation of 7-ethoxyresorufin (CYP1A2), methyl-hydroxylation of tolbutamide (CYP2C9), 4′-hydroxylation of mephenyloin (CYP2C19), O-demethylation of dextromethorphan (CYP2D6), and hydroxylation of terfenadine (CYP3A4), as indicator reactions, the degree of inhibition of each metabolite production by each test compound was evaluated.
(§2) The reaction conditions were as follows:
(§3) Substrate: 0.5 μmol/L of ethoxyresorufin (CYP1A2), 100 μmol/L of tolbutamide (CYP2C9), 50 μmol/L of S-mephenyloin (CYP2C19), 5 μmol/L of dextromethorphan (CYP2D6), 1 μmol/L of terfenadine (CYP3A4); […]
(§4) As a reaction solution, the respective five substrates, human liver microsomes, and test compound in the aforementioned amounts were added to a 50 mM Hepes buffer in a 96-well microplate. […] Centrifugation was performed for 15 minutes at 3000 rpm, and each metabolite in the centrifuged supernatant was quantified. Namely, resorufin (CYP1A2 metabolite) was quantified with a fluorescence multilabel counter, and hydroxylated tolbutamide (CYP2C9 metabolite), 4′-hydroxylated mephenyloin (CYP2C19 metabolite), dextrorphan (CYP2D6 metabolite) and alcoholized terfenadine (CYP3A4 metabolite) were quantified with LC/MS/MS. […]

[4] = biological target: CYP2D6 (Homo sapiens (Human), UniProt P10635); test: CYP inhibition test (CYP2D6); type: in vitro ADME; details: pooled human liver microsomes, O-demethylation of dextromethorphan
Chain of CYP2D6 (P10635 whole entry): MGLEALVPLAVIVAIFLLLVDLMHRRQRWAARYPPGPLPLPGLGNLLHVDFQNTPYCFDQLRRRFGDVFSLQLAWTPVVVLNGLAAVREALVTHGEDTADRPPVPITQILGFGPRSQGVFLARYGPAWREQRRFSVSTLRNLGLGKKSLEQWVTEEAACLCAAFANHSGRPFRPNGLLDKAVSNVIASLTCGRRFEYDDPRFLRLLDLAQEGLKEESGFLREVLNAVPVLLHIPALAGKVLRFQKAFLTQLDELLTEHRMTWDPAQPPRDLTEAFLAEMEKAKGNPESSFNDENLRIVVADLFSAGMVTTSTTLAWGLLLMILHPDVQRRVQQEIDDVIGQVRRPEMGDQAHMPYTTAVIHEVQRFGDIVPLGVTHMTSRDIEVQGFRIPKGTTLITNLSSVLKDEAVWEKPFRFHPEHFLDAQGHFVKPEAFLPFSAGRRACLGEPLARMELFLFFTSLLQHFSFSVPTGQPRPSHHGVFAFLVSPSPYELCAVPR
Source text: as §1, §2, §3, §4

[5] = biological target: CYP2C9 (Homo sapiens (Human), UniProt P11712); test: CYP inhibition test (CYP2C9); type: in vitro ADME; details: pooled human liver microsomes, methyl-hydroxylation of tolbutamide
Chain of CYP2C9 (P11712 whole entry): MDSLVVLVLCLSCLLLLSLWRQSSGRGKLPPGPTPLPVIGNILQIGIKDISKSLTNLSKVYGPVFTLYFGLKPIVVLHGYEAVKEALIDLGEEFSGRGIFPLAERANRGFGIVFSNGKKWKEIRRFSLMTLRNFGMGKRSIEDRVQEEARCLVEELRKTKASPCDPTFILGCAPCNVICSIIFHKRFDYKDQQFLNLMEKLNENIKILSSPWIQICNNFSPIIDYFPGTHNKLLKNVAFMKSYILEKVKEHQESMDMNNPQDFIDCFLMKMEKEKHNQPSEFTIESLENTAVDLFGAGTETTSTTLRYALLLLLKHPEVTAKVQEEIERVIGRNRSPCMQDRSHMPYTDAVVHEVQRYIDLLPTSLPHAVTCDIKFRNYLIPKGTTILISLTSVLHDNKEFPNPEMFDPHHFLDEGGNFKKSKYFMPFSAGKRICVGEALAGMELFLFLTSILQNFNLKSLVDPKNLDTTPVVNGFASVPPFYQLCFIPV
Source text: as §1, §2, §3, §4

[6] = biological target: T1, CYP3A4 (Homo sapiens (Human), UniProt P08684); test: CYP inhibition test (CYP3A4); type: in vitro ADME; details: pooled human liver microsomes, hydroxylation of terfenadine
T1 sequence (P08684 whole entry): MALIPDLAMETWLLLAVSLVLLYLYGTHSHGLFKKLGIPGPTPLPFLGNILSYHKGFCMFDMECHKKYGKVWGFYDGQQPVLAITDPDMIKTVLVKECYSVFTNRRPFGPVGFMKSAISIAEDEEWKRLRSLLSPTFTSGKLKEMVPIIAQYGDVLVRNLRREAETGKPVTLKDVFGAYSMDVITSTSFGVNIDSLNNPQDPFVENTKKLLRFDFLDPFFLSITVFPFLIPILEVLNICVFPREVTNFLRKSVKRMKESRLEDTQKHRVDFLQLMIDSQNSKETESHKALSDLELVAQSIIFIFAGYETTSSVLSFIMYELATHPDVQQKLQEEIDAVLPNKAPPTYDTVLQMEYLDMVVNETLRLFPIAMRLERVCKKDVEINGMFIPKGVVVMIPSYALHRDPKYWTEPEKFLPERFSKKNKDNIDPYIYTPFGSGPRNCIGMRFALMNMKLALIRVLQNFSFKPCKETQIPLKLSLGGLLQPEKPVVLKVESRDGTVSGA
Source text: as §1, §2, §3, §4

[7] = biological target: CYP2C19 (Homo sapiens (Human), UniProt P33261); test: CYP inhibition test (CYP2C19); type: in vitro ADME; details: pooled human liver microsomes, 4′-hydroxylation of mephenyloin
Chain of CYP2C19 (P33261 whole entry): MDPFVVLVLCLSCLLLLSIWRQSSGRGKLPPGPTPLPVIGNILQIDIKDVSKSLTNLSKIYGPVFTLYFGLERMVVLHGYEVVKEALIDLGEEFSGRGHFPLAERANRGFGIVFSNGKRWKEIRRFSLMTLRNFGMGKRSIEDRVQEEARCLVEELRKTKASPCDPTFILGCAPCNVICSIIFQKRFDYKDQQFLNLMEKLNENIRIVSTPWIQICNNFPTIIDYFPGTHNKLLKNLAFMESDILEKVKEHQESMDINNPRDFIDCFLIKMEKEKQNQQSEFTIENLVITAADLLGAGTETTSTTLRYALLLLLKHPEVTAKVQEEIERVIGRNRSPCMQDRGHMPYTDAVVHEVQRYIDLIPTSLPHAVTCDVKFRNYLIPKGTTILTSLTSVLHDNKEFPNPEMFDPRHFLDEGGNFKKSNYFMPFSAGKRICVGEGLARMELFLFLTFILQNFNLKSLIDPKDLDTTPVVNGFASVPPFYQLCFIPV
Source text: as §1, §2, §3, §4

[8] = Solubility test; type: physicochemical; details: artificial intestinal juice (phosphate buffer) with 1% DMSO, fassgf or other biorelevant, kinetic from dmso stock, artificial intestinal juice pH 6.8, 16 hours at 25° C.
Protocol: The solubility of each compound was determined under 1% DMSO addition conditions. A 10 mM solution of the compound was prepared with DMSO, and 6 μL of the compound solution was added to 594 μL of an artificial intestinal juice (water and 118 mL of 0.2 mol/L NaOH reagent were added to 250 mL of 0.2 mol/L potassium dihydrogen phosphate reagent to reach 1000 mL) with a pH of 6.8. The mixture was left standing for 16 hours at 25° C., and the mixture was vacuum-filtered. The filtrate was two-fold diluted with methanol/water=1/1, and the compound concentration in the filtrate was measured with HPLC or LC/MS/MS by the absolute calibration method.

[9] = biological target: T1, CYP3A4; test: CYP3A4 fluorescent MBI test; type: in vitro ADME; details: E. coli-expressing CYP3A4, 7-BFC substrate, pre-reaction 0 or 30 minutes
Protocol: The CYP3A4 fluorescent MBI test is a test to examine enhancement of CYP3A4 inhibition by metabolic reaction of the compound. Here, E. coli-expressing CYP3A4 was used as an enzyme, and a reaction wherein 7-benzyloxy trifluoromethylcumarin (7-BFC) was debenzylated by the CYP3A4 enzyme into a fluorescent metabolite 7-hydroxytrifluoromethylcumarin (HFC) was employed as an indicator reaction. The reaction conditions were as follows.
Substrate: 5.6 μmol/L 7-BFC
Pre-reaction time: 0 or 30 minutes
Reaction time: 15 minutes
Reaction temperature: 25° C. (room temperature)
CYP3A4 content (E. coli-expressing enzyme): 62.5 pmol/mL at pre-reaction, […] at reaction (10-fold diluted) […]
The enzyme and a test compound solution were added to a K-Pi buffer (pH 7.4) in the aforementioned amounts for the pre-reaction so that a pre-reaction solution was prepared, and this solution was put into a 96-well microplate. […] With respect to each of the microplates on which the indicator reaction was performed, the fluorescence value of the metabolite 7-HFC was measured with a fluorescence plate reader (Ex=420 nm, Em=535 nm). […] The remaining activity (%) at each concentration after adding the test compound solution was calculated, and the IC50 value was calculated from the concentration and inhibition percentage by inverse estimation with the logistic model. […]

[10] = Metabolic stability test; type: in vitro ADME; details: human liver microsomes 0.5 mg protein/mL, NADPH, 30 minutes at 37° C., compound concentration 2 μM
Protocol: The target compound was reacted with commercially available pooled human liver microsomes for a predetermined time period. The residual rate was calculated by comparing the reacted sample and unreacted sample, and thus the degree of metabolism in liver was evaluated.
In 0.2 mL of a buffer (50 mmol/L tris-HCl pH 7.4, 150 mmol/L potassium chloride, 10 mmol/L magnesium chloride) containing human liver microsomes 0.5 mg protein/mL, reaction was carried out in the presence of 1 mmol/L NADPH for 0 minute or 30 minutes at 37° C. (oxidative reaction). After the reaction, 50 μL of the reaction solution was added to and mixed with 100 μL of a solution of methanol/acetonitrile=1/1 (v/v), and the mixture was centrifuged for 15 minutes at 3000 rpm. The test compound in the centrifuged supernatant was quantified by LC/MS/MS, and the residual amount of the test compound after the reaction was calculated based on the compound amount at 0-minute reaction set as 100%.
(Results) The residual rate at a compound concentration of 2 μM is shown below.

Structure (SMILES) | IC50 [1] [nM] | IC50 [2] [nM] | further results
C[C@@H](NC(=O)c1cc(C(=O)N[C@@H](Cc2ccccc2)[C@H](O)CNC2CC2)cc(N(C)S(C)(=O)=O)c1)c1ccccc1 [Reference Compound, reference compound] | 36.8 |  | 
CC#CCOc1cnc(C(=O)Nc2cccc(C3(C)CC(=O)N(C)C(N)=N3)c2)cn1 (stereo not shown) [Compound 44] | 0.7 | 12 | IC50 [3]: > 20000 nM; IC50 [4]: > 20000 nM; IC50 [5]: > 20000 nM; IC50 [6]: > 20000 nM; IC50 [7]: > 20000 nM
COc1cnc(C(=O)Nc2cccc(CNc3cccnc3N)c2)cn1 [Compound 473] | 479 | 1980 | IC50 ([3]; pooled human liver microsomes, O-deethylation of 7-ethoxyresorufin, read-out: IC50 CYP1A2 inhibition): > 20000 nM; IC50 [4]: > 20000 nM; IC50 [5]: > 20000 nM; IC50 [6]: > 20000 nM; IC50 [7]: > 20000 nM; solubility at 16 h [8]: > 50 µM
C#CCOc1cnc(C(=O)Nc2cccc(C3(C)CC(=O)N(C)C(N)=N3)c2)cn1 (stereo not shown) [Compound 43] | 28.6 | 56 | IC50 difference without vs with pre-reaction [9]: ≤ 3000 nM
COCCOc1cnc(C(=O)Nc2cccc(CNc3cccnc3N)c2)cn1 [Compound 478] | 811 | 3180 | solubility at 16 h [8]: > 50 µM
CC#CCOc1cnc(C(=O)Nc2cccc(CNc3cccnc3N)c2)cn1 [Compound 482] | 43.8 | 73 | 
COc1cnc(C(=O)Nc2cccc(C3(C)CC(=O)N(C)C(N)=N3)c2)cn1 (stereo not shown) [Compound 35] | 6.6 | 42 | residual rate [10]: 99.5%
CN1C(=O)CC(C)(c2cccc(NC(=O)c3cnc(Cl)cn3)c2)N=C1N (stereo not shown) [Compound 34] | 76.2 | 37 | 
C#CCOc1cnc(C(=O)Nc2cccc(CNc3cccnc3N)c2)cn1 [Compound 481] | 76.8 | 180 | 
